Data from ChEMBL document CHEMBL1131675, “A new anti-tubulin agent containing the benzo[b]thiophene ring system” (1999).

Assays:
P388 = experiment: Inhibition of murine P388 lymphocytic leukemia cell proliferation; format: functional; details: Mus musculus, read-out: ED50 (the source's name)
[1] = molecular target: Tubulin alpha chain (Sus scrofa) (UniProt P02550); experiment: Percentage inhibition of [3H]colchicine binding to tubulin was evaluated at 50 uM concentration
[2] = molecular target: Tubulin alpha chain (Sus scrofa) (UniProt P02550); experiment: Percentage control on Tubulin-Dependent GTP hydrolysis was evaluated at 50 uM concentration; format: functional; set-up: scale not given: the % may be the effect or the level left
[3] = molecular target: Tubulin alpha chain (Sus scrofa) (UniProt P02550); experiment: Percentage control on Tubulin-Dependent GTP hydrolysis was evaluated at 10 uM concentration; format: functional; set-up: scale not given: the % may be the effect or the level left
[4] = molecular target: Tubulin alpha chain (Sus scrofa) (UniProt P02550); experiment: Percentage control on Tubulin- Dependent GTP hydrolysis was evaluated at 50 micro M concentration; format: functional; set-up: scale not given: the % may be the effect or the level left
[5] = molecular target: Tubulin alpha chain (Sus scrofa) (UniProt P02550); experiment: Percentage control on Tubulin- Dependent GTP hydrolysis was evaluated at 10 micro M concentration; format: functional; set-up: scale not given: the % may be the effect or the level left

Chain of Tubulin alpha chain (Sus scrofa) (P02550 whole entry, looked up): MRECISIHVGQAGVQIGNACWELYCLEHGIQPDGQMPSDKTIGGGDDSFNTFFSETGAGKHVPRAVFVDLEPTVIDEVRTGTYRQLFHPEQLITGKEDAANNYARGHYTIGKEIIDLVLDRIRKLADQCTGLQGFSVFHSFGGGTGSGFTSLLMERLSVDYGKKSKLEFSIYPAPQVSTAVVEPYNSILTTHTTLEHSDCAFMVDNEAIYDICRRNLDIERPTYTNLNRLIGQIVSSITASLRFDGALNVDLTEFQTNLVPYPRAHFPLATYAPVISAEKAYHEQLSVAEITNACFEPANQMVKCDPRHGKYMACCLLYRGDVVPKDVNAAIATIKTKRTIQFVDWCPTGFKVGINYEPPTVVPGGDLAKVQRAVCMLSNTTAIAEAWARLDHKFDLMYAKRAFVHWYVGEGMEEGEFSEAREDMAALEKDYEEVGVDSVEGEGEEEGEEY

SMILES | EC50 (P388) [µg/mL] | Control [4] [%] | Control [5] [%] | further results
COc1ccc(-c2sc3cc(OC)ccc3c2C(=O)c2c(OC)cccc2OC)cc1 | > 100 | – | – | –
COc1ccc(-c2sc3cc(OC)ccc3c2C(=O)c2cc(OC)c(OC)c(OC)c2)cc1 | – | – | – | inhibition [1]: 28%; Control [2]: 135%; Control [3]: 122%
COc1ccc(-c2sc3cc(OC)ccc3c2C(=O)c2cc(OC)c(O)c(OC)c2)cc1 | > 100 | – | – | –
COc1ccc(-c2sc3cc(OC)ccc3c2C(=O)c2cc(OC)cc(OC)c2)cc1 | > 100 | – | – | –
COc1cc([C@@H]2c3cc4c(cc3[C@H](O)[C@H]3COC(=O)[C@H]23)OCO4)cc(OC)c1OC | – | 31 | 43 | –
COc1ccc(/C=C\c2cc(OC)c(OC)c(OC)c2)cc1O | – | 160 | 161 | –
